Assay results reported in ChEMBL document CHEMBL1201862, “PubChem BioAssay data set” (2004).
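Interpolation was linear, between the two tested concentrations surrounding the appropriate level; five concentrations were tested over 48 hours in 96-well plates. Abbreviation: GI50, concentration required for 50% inhibition of growth.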 Active and inactive are the calls of the source. Rule as the data show it: active = GI50 up to about 1.1 µM and inactive = higher.

Tests used:
Test in all cases: inhibition of tumour cell growth, NCI panel, 48 h
[1] = tested on: SW-620
[2] = tested on: HL-60
[3] = tested on: NCI-H23
[4] = tested on: NCI-H226
[5] = tested on: U-251
[6] = tested on: BT-549
[7] = tested on: SF-268
[8] = tested on: RXF 393
[9] = tested on: HCT-116
[10] = tested on: RPMI-8226
[11] = tested on: OVCAR-8
[12] = tested on: TK-10
[13] = tested on: HT-29
[14] = tested on: M14
[15] = tested on: A549
[16] = tested on: UO-31
[17] = tested on: CCRF-CEM
[18] = tested on: PC-3
[19] = tested on: SK-OV-3
[20] = tested on: HOP-62
[21] = tested on: CAKI-1
[22] = tested on: DU-145
[23] = tested on: SK-MEL-5
[24] = tested on: MDA-N
[25] = tested on: OVCAR-3
[26] = tested on: MDA-MB-231
[27] = tested on: SF-295
[28] = tested on: A498
[29] = tested on: K562
[30] = tested on: SNB-19
[31] = tested on: KM12
[32] = tested on: NCI/ADR-RES
[33] = tested on: OVCAR-5
[34] = tested on: IGROV-1
[35] = tested on: SK-MEL-2
[36] = tested on: ACHN
[37] = tested on: 786-0
[38] = tested on: Hs-578T
[39] = tested on: MOLT-4
[40] = tested on: EKVX
[41] = tested on: Malme-3M
[42] = tested on: SNB-75
[43] = tested on: NCI-H460
[44] = tested on: HOP-92
[45] = tested on: MDA-MB-435
[46] = tested on: SK-MEL-28
[47] = tested on: SN12C
[48] = tested on: SF-539
[49] = tested on: NCI-H522
[50] = tested on: LOX IMVI
[51] = tested on: UACC-62
[52] = tested on: T47D
[53] = tested on: COLO 205
[54] = tested on: HCT-15
[55] = tested on: UACC-257

## C=CCCON(C(=O)OC(C)(C)C)c1ccccc1
[1]
  GI50: > 100 µM (inactive)
[2]
  GI50: 12.4 µM (inactive)
[3]
  GI50: > 100 µM (inactive)
[4]
  GI50: > 100 µM (inactive)
[5]
  GI50: > 100 µM (inactive)
[6]
  GI50: > 100 µM (inactive)
[7]
  GI50: > 100 µM (inactive)
[8]
  GI50: > 100 µM (inactive)
[9]
  GI50: 44.6 µM (inactive)
[10]
  GI50: 6.44 µM (inactive)
[11]
  GI50: > 100 µM (inactive)
[12]
  GI50: > 100 µM (inactive)
[13]
  GI50: 47.9 µM (inactive)
[14]
  GI50: > 100 µM (inactive)
[15]
  GI50: > 100 µM (inactive)
[16]
  GI50: > 100 µM (inactive)
[17]
  GI50: 12.2 µM (inactive)
[18]
  GI50: 4.12 µM (inactive)
[19]
  GI50: > 100 µM (inactive)
[20]
  GI50: > 100 µM (inactive)
[21]
  GI50: > 100 µM (inactive)
[22]
  GI50: > 100 µM (inactive)
[23]
  GI50: > 100 µM (inactive)
[24]
  GI50: > 100 µM (inactive)
[25]
  GI50: > 100 µM (inactive)
[26]
  GI50: > 100 µM (inactive)
[27]
  GI50: > 100 µM (inactive)
[28]
  GI50: > 100 µM (inactive)
[29]
  GI50: > 100 µM (inactive)
[30]
  GI50: > 100 µM (inactive)
[31]
  GI50: > 100 µM (inactive)
[32]
  GI50: 67 µM (inactive)
[33]
  GI50: > 100 µM (inactive)
[34]
  GI50: > 100 µM (inactive)
[35]
  GI50: > 100 µM (inactive)
[36]
  GI50: > 100 µM (inactive)
[37]
  GI50: 74 µM (inactive)
[38]
  GI50: > 100 µM (inactive)
[39]
  GI50: 42.6 µM (inactive)
[40]
  GI50: > 100 µM (inactive)
[41]
  GI50: 20 µM (inactive)
[42]
  GI50: 82.6 µM (inactive)
[43]
  GI50: > 100 µM (inactive)
[44]
  GI50: > 100 µM (inactive)
[45]
  GI50: > 100 µM (inactive)
[46]
  GI50: > 100 µM (inactive)
[47]
  GI50: > 100 µM (inactive)
[48]
  GI50: > 100 µM (inactive)
[49]
  GI50: 43.3 µM (inactive)
[50]
  GI50: > 100 µM (inactive)
[51]
  GI50: > 100 µM (inactive)
[52]
  GI50: 95.1 µM (inactive)
[53]
  GI50: > 100 µM (inactive)
[54]
  GI50: > 100 µM
[55]
  GI50: > 100 µM (inactive)
